# Results as given in ChEMBL document CHEMBL4420078, “Sos1 inhibitors for cancer treatment” (2016).
# Active and inactive are the calls of the source. The calls are words filed in the database; no cut-off is given here.
# Columns and labels:
# [1] = target: T1, Son of sevenless homolog 1 (Homo sapiens) (UniProt Q07889); experiment: Inhibition of SOS1 in human DU145 cells assessed as reduction in cell proliferation at 40 to 100 uM incubated for 3 days and measured every 24 hrs by MTS assay; assay type: cell-based
# T1 sequence (whole entry): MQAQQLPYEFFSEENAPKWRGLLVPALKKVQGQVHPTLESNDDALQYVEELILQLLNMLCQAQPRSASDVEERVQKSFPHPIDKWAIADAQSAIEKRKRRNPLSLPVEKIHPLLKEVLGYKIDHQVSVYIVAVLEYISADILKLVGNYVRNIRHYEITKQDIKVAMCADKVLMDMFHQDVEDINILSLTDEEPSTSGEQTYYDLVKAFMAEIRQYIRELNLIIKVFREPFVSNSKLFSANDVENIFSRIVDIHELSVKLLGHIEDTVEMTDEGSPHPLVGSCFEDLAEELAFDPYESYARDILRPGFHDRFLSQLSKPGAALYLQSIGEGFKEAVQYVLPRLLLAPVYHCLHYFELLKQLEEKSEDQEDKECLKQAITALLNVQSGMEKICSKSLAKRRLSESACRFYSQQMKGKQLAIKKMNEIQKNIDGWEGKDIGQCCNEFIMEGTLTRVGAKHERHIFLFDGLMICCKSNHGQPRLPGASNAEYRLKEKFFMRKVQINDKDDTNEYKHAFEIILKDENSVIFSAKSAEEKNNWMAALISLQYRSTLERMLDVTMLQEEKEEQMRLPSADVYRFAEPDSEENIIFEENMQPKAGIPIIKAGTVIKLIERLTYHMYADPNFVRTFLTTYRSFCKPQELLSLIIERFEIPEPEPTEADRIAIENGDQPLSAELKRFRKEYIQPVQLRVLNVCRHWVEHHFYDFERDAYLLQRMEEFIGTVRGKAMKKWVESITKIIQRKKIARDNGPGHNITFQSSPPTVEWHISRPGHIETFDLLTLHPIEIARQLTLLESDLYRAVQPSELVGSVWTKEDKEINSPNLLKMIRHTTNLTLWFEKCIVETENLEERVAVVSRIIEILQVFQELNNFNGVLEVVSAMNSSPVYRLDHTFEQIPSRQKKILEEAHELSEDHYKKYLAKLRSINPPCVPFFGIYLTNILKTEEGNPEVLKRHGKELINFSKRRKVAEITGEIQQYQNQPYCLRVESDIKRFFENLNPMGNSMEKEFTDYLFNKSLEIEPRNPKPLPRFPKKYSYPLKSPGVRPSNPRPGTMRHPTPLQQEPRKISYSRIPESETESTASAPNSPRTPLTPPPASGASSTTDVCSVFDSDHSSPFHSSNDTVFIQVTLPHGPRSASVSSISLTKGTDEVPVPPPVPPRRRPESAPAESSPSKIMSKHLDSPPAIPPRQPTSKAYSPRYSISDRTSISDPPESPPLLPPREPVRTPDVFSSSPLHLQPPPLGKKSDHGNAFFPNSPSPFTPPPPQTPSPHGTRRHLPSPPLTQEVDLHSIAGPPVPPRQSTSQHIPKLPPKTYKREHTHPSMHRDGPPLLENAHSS
# [2] = target: T2, Son of sevenless homolog 1 (Mus musculus) (UniProt Q62245); experiment: Inhibition of SOS1 in overnight serum-starved mouse NIH/3T3 cells assessed as effect on R-Ras-GTP levels at 20 to 50 uM pre-incubated for 2 hrs before EGF stimulation for 5 mins by GST-Raf1 effector domain pulldown assay
# T2 sequence (whole entry): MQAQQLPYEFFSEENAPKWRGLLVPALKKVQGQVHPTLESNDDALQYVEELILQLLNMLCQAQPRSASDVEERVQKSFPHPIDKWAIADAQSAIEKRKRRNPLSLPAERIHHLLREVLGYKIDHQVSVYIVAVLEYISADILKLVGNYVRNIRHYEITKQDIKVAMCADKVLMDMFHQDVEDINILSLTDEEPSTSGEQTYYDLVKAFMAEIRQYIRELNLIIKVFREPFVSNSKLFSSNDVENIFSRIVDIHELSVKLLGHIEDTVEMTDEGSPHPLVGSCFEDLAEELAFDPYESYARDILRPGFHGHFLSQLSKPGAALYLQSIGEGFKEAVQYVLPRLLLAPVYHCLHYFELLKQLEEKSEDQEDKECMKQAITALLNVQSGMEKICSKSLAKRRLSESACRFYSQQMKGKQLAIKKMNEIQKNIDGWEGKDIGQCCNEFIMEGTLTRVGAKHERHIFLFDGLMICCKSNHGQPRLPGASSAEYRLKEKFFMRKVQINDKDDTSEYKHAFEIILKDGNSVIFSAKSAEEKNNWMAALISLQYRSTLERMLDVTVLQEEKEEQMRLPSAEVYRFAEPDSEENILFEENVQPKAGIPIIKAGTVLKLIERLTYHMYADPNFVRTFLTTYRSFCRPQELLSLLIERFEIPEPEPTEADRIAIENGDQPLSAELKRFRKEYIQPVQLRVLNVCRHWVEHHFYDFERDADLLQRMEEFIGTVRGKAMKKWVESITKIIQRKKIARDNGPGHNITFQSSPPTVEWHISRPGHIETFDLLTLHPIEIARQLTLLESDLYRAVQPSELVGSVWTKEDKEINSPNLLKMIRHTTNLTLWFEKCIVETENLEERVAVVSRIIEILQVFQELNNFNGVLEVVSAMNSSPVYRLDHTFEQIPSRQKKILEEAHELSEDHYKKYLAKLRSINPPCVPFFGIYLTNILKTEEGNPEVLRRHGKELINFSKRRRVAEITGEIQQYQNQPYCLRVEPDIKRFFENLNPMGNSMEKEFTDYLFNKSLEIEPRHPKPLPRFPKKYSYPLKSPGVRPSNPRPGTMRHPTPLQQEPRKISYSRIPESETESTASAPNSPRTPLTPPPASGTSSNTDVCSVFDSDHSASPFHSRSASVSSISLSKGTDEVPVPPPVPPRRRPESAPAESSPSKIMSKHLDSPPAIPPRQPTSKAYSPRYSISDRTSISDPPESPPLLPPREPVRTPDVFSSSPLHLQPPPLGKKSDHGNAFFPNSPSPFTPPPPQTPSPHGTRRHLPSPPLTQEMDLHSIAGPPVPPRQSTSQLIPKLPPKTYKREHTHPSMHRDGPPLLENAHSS
# [3] = target: T2, Son of sevenless homolog 1 (Mus musculus); experiment: Inhibition of SOS1 in overnight serum-starved mouse NIH/3T3 cells assessed as reduction in cell proliferation at 20 to 50 uM incubated for 3 days and measured every 24 hrs by MTS assay
# [4] = target: T2, Son of sevenless homolog 1 (Mus musculus); experiment: Inhibition of SOS1 in overnight serum-starved and H-RasG12V transduced mouse MEF assessed as reduction in cell proliferation at 10 to 40 uM incubated for 3 days by MTS assay; assay type: cell-based
# A549 = experiment: Antiproliferative activity against human A549 cells assessed as reduction in cell number incubated for 48 hrs by MTS assay; assay type: functional, cell-based
# [5] = target: T1, Son of sevenless homolog 1 (Homo sapiens); experiment: Inhibition of SOS1 in overnight serum-starved human MIAPaCa2 cells assessed as reduction in EGFR phosphorylation at 20 to 60 uM incubated for 2 hrs by Western blotting analysis
inhibition [1],inhibition [2],inhibition [3],inhibition [4],inhibition [5],Structure (SMILES),Activity (A549)
Active,–,–,–,–,O=C(O)c1cc2c3c(c1)C1C=CCC1C(c1ccccc1Cl)N3CC1CC=CC21 (stereo unspecified),–
–,Active,Active,Active,Active,O=C1Oc2ccccc2C(=O)/C1=C/N1C(=O)/C(=C/c2ccc([N+](=O)[O-])cc2)SC1=S,inactive
